Laboratory results: ChEMBL document CHEMBL4052761, “20(R)-Ginsenoside Rg3 protects SH-SY5Y cells against apoptosis induced by oxygen and glucose deprivation/reperfusion” (2017)
Calls of active or inactive are those of the source. The calls are words filed in the database; no cut-off is given here.

Assays:
[1] = system: SH-SY5Y; assay: Cytoprotection against oxygen-glucose deprivation/reperfusion-induced cell death in human SH-SY5Y cells assessed as increase in cell viability at 25 to 125 umol/L pretreated for 24 hrs followed by oxygen-glucose deprivation for 10 hrs and reperfusion for 24 hrs by MTT assay; format: functional, cell-based
[2] = system: SH-SY5Y; assay: Cytoprotection against oxygen-glucose deprivation/reperfusion-induced cell death in human SH-SY5Y cells assessed as reduction in LDH leakage at 25 to 125 umol/L pretreated for 24 hrs followed by oxygen-glucose deprivation for 10 hrs and reperfusion for 24 hrs; format: functional, cell-based
[3] = system: SH-SY5Y; assay: Cytoprotection against oxygen-glucose deprivation/reperfusion-induced cell death in human SH-SY5Y cells assessed as reduction in LDH leakage at 1 to 5 umol/L pretreated for 24 hrs followed by oxygen-glucose deprivation for 10 hrs and reperfusion for 24 hrs; format: functional, cell-based
[4] = system: SH-SY5Y; assay: (§1) Cytoprotection against oxygen-glucose deprivation/reperfusion-induced cell death in human SH-SY5Y cells assessed as early apoptotic cells at 1 umol/L pretreated for 24 hrs followed by oxygen-glucose deprivation for 10 hrs and reperfusion for 24 hrs by annexin V-FITC-propidium iodide staining-based flow cytometry method (reference value: 24.0%); format: functional
[5] = system: SH-SY5Y; assay: as §1, with “late” for “early”, “10.5%)” for “24.0%)”; format: functional
[6] = system: SH-SY5Y; assay: as §1, with “necrotic” for “early apoptotic”, “2.3%)” for “24.0%)”; format: functional
[7] = system: SH-SY5Y; assay: as §1, with “viable” for “early apoptotic”, “63.2%)” for “24.0%)”; format: functional; settings: read-out: Activity
[8] = system: SH-SY5Y; assay: as §1, with “at 5” for “at 1”; format: functional
[9] = system: SH-SY5Y; assay: as §1, with “as late” for “as early”, “at 5” for “at 1”, “value: 10.5%)” for “value: 24.0%)”; format: functional
[10] = system: SH-SY5Y; assay: as §1, with “as necrotic” for “as early apoptotic”, “at 5” for “at 1”, “value: 2.3%)” for “value: 24.0%)”; format: functional
[11] = system: SH-SY5Y; assay: as §1, with “as viable” for “as early apoptotic”, “at 5” for “at 1”, “value: 63.2%)” for “value: 24.0%)”; format: functional; settings: read-out: Activity
[12] = system: SH-SY5Y; assay: as §1, with “at 25” for “at 1”; format: functional
[13] = system: SH-SY5Y; assay: as §1, with “as late” for “as early”, “at 25” for “at 1”, “value: 10.5%)” for “value: 24.0%)”; format: functional
[14] = system: SH-SY5Y; assay: as §1, with “as necrotic” for “as early apoptotic”, “at 25” for “at 1”, “value: 2.3%)” for “value: 24.0%)”; format: functional
[15] = system: SH-SY5Y; assay: as §1, with “as viable” for “as early apoptotic”, “at 25” for “at 1”, “value: 63.2%)” for “value: 24.0%)”; format: functional; settings: read-out: Activity
[16] = system: SH-SY5Y; assay: as §1, with “at 125” for “at 1”; format: functional
[17] = system: SH-SY5Y; assay: as §1, with “as late” for “as early”, “at 125” for “at 1”, “value: 10.5%)” for “value: 24.0%)”; format: functional
[18] = system: SH-SY5Y; assay: as §1, with “as necrotic” for “as early apoptotic”, “at 125” for “at 1”, “value: 2.3%)” for “value: 24.0%)”; format: functional
[19] = system: SH-SY5Y; assay: as §1, with “as viable” for “as early apoptotic”, “at 125” for “at 1”, “value: 63.2%)” for “value: 24.0%)”; format: functional; settings: read-out: Activity
[20] = system: SH-SY5Y; assay: as §1, with “cells” for “cells at 1 umol/L”; format: functional
[21] = system: SH-SY5Y; assay: as §1, with “late” for “early”, “cells” for “cells at 1 umol/L”, “10.5%)” for “24.0%)”; format: functional
[22] = system: SH-SY5Y; assay: as §1, with “necrotic” for “early apoptotic”, “cells” for “cells at 1 umol/L”, “2.3%)” for “24.0%)”; format: functional
[23] = system: SH-SY5Y; assay: as §1, with “viable” for “early apoptotic”, “cells” for “cells at 1 umol/L”, “63.2%)” for “24.0%)”; format: functional
[24] = system: SH-SY5Y; assay: Cytoprotection against oxygen-glucose deprivation/reperfusion-induced cell death in human SH-SY5Y cells assessed as decrease in cleaved caspase-3 level at 25 to 125 umol/L pretreated for 24 hrs followed by oxygen-glucose deprivation for 10 hrs and reperfusion for 24 hrs by Western blot analysis; format: functional, cell-based
[25] = system: SH-SY5Y; assay: Cytoprotection against oxygen-glucose deprivation/reperfusion-induced cell death in human SH-SY5Y cells assessed as decrease in Bax protein level at 5 to 125 umol/L pretreated for 24 hrs followed by oxygen-glucose deprivation for 10 hrs and reperfusion for 24 hrs by Western blot analysis; format: functional, cell-based
[26] = system: SH-SY5Y; assay: Cytoprotection against oxygen-glucose deprivation/reperfusion-induced cell death in human SH-SY5Y cells assessed as increase in Bcl-2 protein level at 5 to 125 umol/L pretreated for 24 hrs followed by oxygen-glucose deprivation for 10 hrs and reperfusion for 24 hrs by Western blot analysis; format: functional, cell-based
[27] = system: SH-SY5Y; assay: Cytoprotection against oxygen-glucose deprivation/reperfusion-induced cell death in human SH-SY5Y cells assessed as decrease in Bax m-RNA expression pretreated for 24 hrs followed by oxygen-glucose deprivation for 10 hrs and reperfusion for 24 hrs by RT-qPCR analysis; format: functional, cell-based
[28] = system: SH-SY5Y; assay: Cytoprotection against oxygen-glucose deprivation/reperfusion-induced cell death in human SH-SY5Y cells assessed as decrease in Bax m-RNA expression at 125 umol/L pretreated for 24 hrs followed by oxygen-glucose deprivation for 10 hrs and reperfusion for 24 hrs by RT-qPCR analysis; format: functional, cell-based
[29] = system: SH-SY5Y; assay: Cytoprotection against oxygen-glucose deprivation/reperfusion-induced cell death in human SH-SY5Y cells assessed as increase in Bcl2 m-RNA expression pretreated for 24 hrs followed by oxygen-glucose deprivation for 10 hrs and reperfusion for 24 hrs by RT-qPCR analysis; format: functional, cell-based
[30] = system: SH-SY5Y; assay: Cytoprotection against oxygen-glucose deprivation/reperfusion-induced cell death in human SH-SY5Y cells assessed as increase in Bcl2 m-RNA expression at 125 umol/L pretreated for 24 hrs followed by oxygen-glucose deprivation for 10 hrs and reperfusion for 24 hrs by RT-qPCR analysis; format: functional, cell-based
[31] = system: SH-SY5Y; assay: Cytoprotection against oxygen-glucose deprivation/reperfusion-induced cell death in human SH-SY5Y cells assessed as reduction in LDH leakage at 100 umol/L pretreated for 24 hrs followed by oxygen-glucose deprivation for 10 hrs and reperfusion for 24 hrs; format: functional, cell-based
[32] = system: SH-SY5Y; assay: Cytoprotection against oxygen-glucose deprivation/reperfusion-induced cell death in human SH-SY5Y cells assessed as increase in cell viability at 100 umol/L pretreated for 24 hrs followed by oxygen-glucose deprivation for 10 hrs and reperfusion for 24 hrs by MTT assay; format: functional, cell-based
[33] = system: SH-SY5Y; assay: Cytoprotection against oxygen-glucose deprivation/reperfusion-induced cell death in human SH-SY5Y cells assessed as decrease in cleaved caspase-3 level at 100 umol/L pretreated for 24 hrs followed by oxygen-glucose deprivation for 10 hrs and reperfusion for 24 hrs by Western blot analysis; format: functional, cell-based
[34] = system: SH-SY5Y; assay: Cytoprotection against oxygen-glucose deprivation/reperfusion-induced cell death in human SH-SY5Y cells assessed as decrease in Bax m-RNA expression at 100 umol/L pretreated for 24 hrs followed by oxygen-glucose deprivation for 10 hrs and reperfusion for 24 hrs by RT-qPCR analysis; format: functional, cell-based
[35] = system: SH-SY5Y; assay: Cytoprotection against oxygen-glucose deprivation/reperfusion-induced cell death in human SH-SY5Y cells assessed as increase in Bcl2 m-RNA expression at 100 umol/L pretreated for 24 hrs followed by oxygen-glucose deprivation for 10 hrs and reperfusion for 24 hrs by RT-qPCR analysis; format: functional, cell-based

`CC(C)=CCC[C@](C)(O)[C@H]1CC[C@]2(C)[C@@H]1[C@H](O)C[C@@H]1[C@@]3(C)CC[C@H](O[C@@H]4O[C@H](CO)[C@@H](O)[C@H](O)[C@H]4O[C@@H]4O[C@H](CO)[C@@H](O)[C@H](O)[C@H]4O)C(C)(C)[C@@H]3CC[C@]12C` was tested, and the Activity [1] was “Active”, the Activity [2] was “Active” and the Activity [3] was “inactive”. For the same molecule, the Activity [4] was 17%, the Activity [5] was 10.3% and the Activity [6] was 2.7%. The viability at 1 µM [7] was 69.9%, the Activity [8] was 13% and the Activity [9] was 11.3%. For the same molecule, the Activity [10] was 5.8%, the viability at 5 µM [11] was 70% and the Activity [12] was 7.9%. It also gave an Activity [13] of 5.7%, an Activity [14] of 8.9% and a viability at 25 µM [15] of 77.5%. It also gave an Activity [16] of 5%, an Activity [17] of 4.8% and an Activity [18] of 9.8%. For the same molecule, the viability at 125 µM [19] was 80.4%, the Activity [20] was 8% and the Activity [21] was 2.8%. The Activity [22] was 8.9%, the Activity [23] was 80.4% and the Activity [24] was “Active”. For the same molecule, the Activity [25] was “Active”, the Activity [26] was “Active” and the Activity [27] was “Dose-dependent effect”. For the same molecule, the Activity [28] was “Active”, the Activity [29] was “Dose-dependent effect” and the Activity [30] was “Active”.

For `COCCOC(=O)C1=C(C)NC(C)=C(C(=O)OC(C)C)C1c1cccc([N+](=O)[O-])c1` (stereo not given), the Activity [31] was “Active”, the Activity [32] was “Active” and the Activity [33] was “Active”. The Activity [34] was “Active” and the Activity [35] was “Active”.
